The test system of data set [1] is MV4-11 cells. Put plainly: Antiproliferative activity, MTT assay, MV4-11 leukemia cells. In kind it is cell-based, human. In general terms: Formazan colour is commonly taken as a measure of viable cells.
Description: (§7) The in vitro antiproliferative activity tests have been conducted against four human cancer cell lines: MV4-11 biphenotypic B myelomonocytic leukemia cell line, A549 lung carcinoma cell line, MCF-7 breast carcinoma cell line, PC-3 prostate carcinoma cell line and one normal BALB/3T3 mouse fibroblast cell line. […] All tested compounds were dissolved in DMSO and diluted with a culture medium to a desired concentration. […] Cell viability, after 72 h incubation of the cells with tested compounds, was determined using tetrazolinum dye MTT (for MV4-11 cells) or sulforhodamine B (SRB test, for MCF-7, A549, PC-3, BALB/3T3 cells) colorimetric assays.
(§8) Human biphenotypic B myelomonocytic leukemia MV4-11, murine normal fibroblast BALB/3T3 cells were obtained from the American Type Culture Collection (USA); and human lung carcinoma A549, human breast cancer MCF-7 and human prostate adenocarcinoma PC-3 were obtained from the European Collection of Authenticated Cell Cultures (UK).
(§9) MV4-11 and PC-3 cells were cultured in RPMI 1640 medium (HIIET PAS, Poland) with 1.0 mM sodium pyruvate (only MV4-11) and 10% fetal bovine serum (FBS) (all from Merck, Darmstadt, Germany). A549 cells were cultured in RPMI 1640 + Opti-MEM (1:1) ((HIIET PAS, Poland and Gibco, UK) supplemented with 5% fetal bovine serum (Merck, Darmstadt, Germany). The MCF-7 cells were cultured in Eagle medium (HIIET PAS, Poland) supplemented with 8 mg/mL of insulin and 1% of MEM NON-Essential amino acid (all Merck, Darmstadt, Germany). Normal fibroblasts BALB/3T3 cells were cultured in DMEM medium (Gibco, UK) supplemented with 10% fetal bovine serum and 1.0 mM sodium pyruvate (all from Merck, Darmstadt, Germany). All culture media were supplemented with 2 mM L-glutamine (Merck, Darmstadt, Germany), 100 units/ml penicillin, (Polfa Tarchomin S.A., Poland) and 100 µg/mL streptomycin (Merck, Darmstadt, Germany). All cell lines were grown at 37 °C in a 5% CO2 humidified atmosphere.
(§10) The solutions of the tested compounds were prepared by dissolving the substances in DMSO to the desired concentration (25 mM). Then, the tested compounds were diluted in a culture medium to reach the final concentrations. Before addition of the tested compounds (24 h prior), the cells were plated in 96-well plates (Sarstedt, Germany) at a density of 1 × 10^4, 0.75 × 10^4 (MCF-7) or 0.5 × 10^4 (A549) cells per well. The assay was performed after 72 h of exposure to 100, 10, 1 and 0.1 µM concentration of the tested agents. […] The SRB method determined the amount of cellular proteins. The concentration of the colorimetric probe (formazan in MTT or sulforhodamine B in SRB method) was determined by an optical density measurement using a standard microplate reader for 96-well plates. After optical density measurement, using the data of the mean absorbances of control cells (AbCC), the absorbances of cells treated by the tested compound (AbTr) (for each concentration separately) and the absorbance of the cultured medium (AbCM) the % of cell proliferation inhibition was calculated according to the following formula: % inh. cells proliferation=100−AbTr−AbCM/AbCC−AbCM×100
(§11) From the obtained proliferation inhibition values, effect-concentration curves of the compound used were plotted. […] IC50 values were calculated for each experiment separately using the Prolab-3 system based on Cheburator 0.4 software [36] and mean values (±SD) are presented. Each compound in each concentration was tested in triplicate in a single experiment, which was repeated 3–5 times.
In data set [2] the test system is A549 cells. The data set can be described thus: Induction of apoptosis, Annexin V/PI staining, A549. In kind it is cell-based, human. The note with it: about 1.5 × IC50, 24 h. From the text:
(§1) Apoptosis is one of a cell’s natural mechanisms for programmed cell death. It plays a crucial role in homeostasis by eliminating the unwanted or unnecessary cells. One of the most important functions of apoptosis is prevention of cancer. However, cancer cells often lose the ability to enter the path of apoptosis, which allows them to survive longer and grow in an uncontrolled manner. Regardless of that, apoptosis still remains the most important molecular mechanism to combat cancer cells; therefore, research is conducted to obtain agents with the ability to selectively induce apoptosis in cancer cell lines.
(§2) The MV4-11, A549 and PC-3 cells were seeded on 24-well plates (Sarstedt, Germany) for a final volume of 1.5 mL. […] After incubation, the cells were collected and 2 × 10^5 of cells were washed twice with PBS. […] Results were analyzed using Flowing software 2.5.1. […]

The test system of data set [3] is PC-3 cells. Put plainly: Induction of apoptosis, Annexin V/PI staining, PC-3. The format is cell-based, human. The note with it: about 1.5 × IC50, 72 h.
From the text: as §1, §2

Data set [4] concerns A549 cells. The data set can be described thus: Cell cycle analysis, PI staining flow cytometry, A549. In kind it is cell-based, human. As for the experimental part: (§3) The effects of the selected derivatives on the cell cycle were analyzed by flow cytometry using PI staining.
(§4) The MV4-11, A549 and PC-3 cells were seeded on 24-well plates (Sarstedt, Germany) for a final volume of 1.5 mL. […] After incubation, the cells were collected and 1 × 10^6 of cells were washed twice in cold PBS and fixed for 24 h in 70% ethanol at −20 °C, the cells were washed twice in PBS and incubated with RNAse (8 μg/mL, Fermentas, Germany) at 37 °C for 1 h. The cells were stained for 30 min. with propidium iodide (50 μg/mL, Sigma Aldrich, Germany) at 4 °C and the cellular DNA content was analyzed by flow cytometry using BD LSRFortessa cytometer (BD Bioscience, San Jose, CA, USA). Compounds at each concentration were tested at least three times independently. The obtained results were analyzed using Flowing software 2.5.1 (Cell Imaging Core, Turku Centre for Biotechnology, University of Turku and Åbo Akademi University, Turku, Finland).

In data set [5] the test system is MV4-11 cells. The data set can be described thus: Cell cycle analysis, PI staining flow cytometry, MV4-11. The settings on record: about IC50, 24 and 72 h. In kind it is cell-based, human. The protocol:
as §3, §4
A general note: In flow cytometry, cells or beads pass a laser one at a time.

The subject of data set [6] is caspase-3/7. The data set can be described thus: Caspase-3/7 activity (AC-DEVD-AMC substrate) in A549 cells. The format is cell-based, human. More on the design: key: +: plus mark represents statistically important elevated activity of caspase 3/7 compared to control. The text has this: (§5) Caspase-3 and caspase-7 are cysteine-aspartic acid proteases that can directly execute apoptosis […] sequential activation of caspase-8 or caspase-9. Activation of these enzymes leads to apoptotic cell death; thus, measuring their activity is a good method to determine the pro-apoptotic potential of tested compounds. One of the mechanisms of betulin’s antiproliferative activity is activation of these enzymes; therefore, to further examine the mechanism of action of tested derivatives, we decided to determine their levels.
(§6) The MV4-11, A549 and PC-3 cells were seeded on 48-well plates for a final volume of 1 mL. […] After incubation, the cells were collected and centrifuged (5 min., 4 °C, 250× g). Cells were suspended in 50 µL of ice-cold lysis buffer (50 mM HEPES, 10% (w/v) sucrose, 150 mM NaCl, 2 mM EDTA and 1% (v/v) Triton X-100, pH 7.3, HIIET, Poland) and incubated 30 min. at […]. After the incubation, 40 µL of each sample was transferred to a white, 96-well plate (Corning, CA, USA) containing 160 µL of the reaction buffer (20 mM HEPES, 10 % sucrose, 100 mM NaCl, 1 mM EDTA, 10 mM DTT, 0.02 % Trition X-100, pH 7.3) (HIIET, Wroclaw, Poland) with 9 µM AC-DEVD-AMC (Cayman Chemical) fluorogenic substrate (λex = 360 nm, λem = 460 nm). The fluorescence increase correlated with the caspase-3/7 level was continuously recorded at 37 °C for 120 min using a Biotek Synergy H4 (Biokom, Warsaw, Poland). Compounds were tested in duplicates in a single experiment and each experiment was repeated at least three times independently. Results were normalized to the number of cells in each well and are reported as mean relative caspase-3/7 activity compared to the untreated control sample ± SD.

In data set [7] the test system is caspase-3/7. Put plainly: Caspase-3/7 activity (AC-DEVD-AMC substrate) in PC-3 cells. In kind it is cell-based, human. Details: key to Caspase 3/7 Activity, PC-3: +: plus mark represents statistically important elevated activity of caspase 3/7 compared to control. The note with it: +/− summary vs control.
From the text: as §5, §6

Data set [8] can be described thus: Experimental lipophilicity by RP-TLC.
Description: The retention mechanism in the RP-TLC method is based on the partition of substances between two phases. Silica gel (RP-18 F254S plates) was used as the hydrophobic stationary phase. In contrast, the hydrophilic mobile phase was a binary mixture of acetone and an aqueous solution of TRIS buffer.
Chromatographic analysis by RP-TLC was performed an aluminum backed silica gel RP-18 F254S
phenylanthracene] and tested betulin derivatives were dissolved in chloroform to obtain a
concentration of 2 mg/mL. The prepared solutions were spotted on the plates in the amount of 2 μL.
the next step, the chromatographic chambers were saturated 30 min of the appropriate mobile phases
consisting of a mixture of acetone (Merck, Darmstadt, Germany) and aqueous solution of buffer Tris
[(tris-hydroxymethyl)aminomethane] (Fluka, Loughborough, 0.2 M, pH 7.4). The amount of acetone in
the mobile phase were in the range 60-90% in 5% increments. The chromatograms were developed for
each compound in triplicate at room temperature. The spots of betulin derivatives were visualized by
spraying the plates with the mixture of ethanol and concentrated sulfuric acid (10:1, v/v) and heating
The retardation factor (Rf) were calculated according to the equation below:
(a-the distance from the start line to the spot center, b-the distance from the start line to the mobile
The RM values were calculated by the Bate-Smith and Westall equation:
The RM0 parameters were obtained by extrapolating on the acetone content to zero, according to the
Soczewiński-Wachtmeister equation:
(C-the percentage concentration of acetone in the mobile phase, b-the slope of the regression plot).
The calibration curve was determined using eight reference compounds.
compounds were determined under the same conditions as for betulin derivatives (Table S1).
The nature of data set [9]: Cytotoxicity, SRB assay, normal BALB/3T3 fibroblasts. The settings on record: mouse, BALB/3T3 normal fibroblast cells. (The SRB assay estimates cell density from bound dye.)
Description: as §7, §8, §9, §10, §11
The test system of data set [10] is A549 cell line. The data set can be described thus: Antiproliferative activity, SRB assay, A549 lung carcinoma cells.
The test system of data set [11] is MCF-7 cell line. The data set can be described thus: Antiproliferative activity, SRB assay, MCF-7 breast carcinoma cells.
The test system of data set [12] is PC-3 cell line. The data set can be described thus: Antiproliferative activity, SRB assay, PC-3 prostate carcinoma cells.
Description: as §7, §8, §9, §10, §11

The source of these data is PMC9820118, “Betulin Acid Ester Derivatives Inhibit Cancer Cell Growth by Inducing Apoptosis through Caspase Cascade Activation: A Comprehensive In Vitro and In Silico Study” (International Journal of Molecular Sciences, 2022).

Entries after “also recorded” stand apart in the source; their conditions may differ.

As a reminder, the IC50 is the midpoint of a concentration-inhibition curve. As to `C=C(C)[C@@H]1CC[C@]2(COC(=O)CCC(=O)O)CC[C@]3(C)C(CCC4[C@@]5(C)CC[C@H](O)C(C)(C)C5CC[C@]43C)C12` (stereo partly shown) [compound 2], the IC50 in [1] (Homo sapiens, MV4-11, 72 h, 72 h incubation, MTT, read-out: Growth inhibition IC50, leukemia cell line MV4-11) was determined as 23.2 µM; in data set [10] (Homo sapiens, A549, 72 h, read-out: Cytotoxicity IC50 against A549 cell line), 35.3 µM; in data set [11] (Homo sapiens, MCF7, 72 h, read-out: Cytotoxicity IC50 against MCF-7 cell line), 53.6 µM; in data set [12] (Homo sapiens, PC-3, 72 h, read-out: Cytotoxicity IC50 against PC-3 cell line), 68.5 µM. The “Calculated Selectivity Index SI, MV4-11” value in data set [1] (IC50 BALB/3T3 / IC50 MV4-11) is recorded as 2.3. For the same compound, in data set [2], the “Induction of apoptosis (AnV/PI), A549, 24 h” value was “significantly increased levels of early-apoptotic and apoptotic cells”. Also, the “Induction of apoptosis (AnV/PI), PC-3, 72 h” value in data set [3] is “shifting the ratio of the living cell population towards apoptotic and necrotic ones”. Also, the “Influence on cell cycle, A549, 24 h” value in data set [4] (about IC50, 24 h) is on record as “significantly induced cell cycle arrest in the G0/G1 phase; also recorded: reduced the number of cells in the S phase with an increased number of dead cells”. Further, the “Influence on cell cycle, A549, 72 h” value in [4] (about IC50, 72 h) is “greater percentage of dead cells with a decrease in G2/M and G0/G1 phases”. The “Influence on cell cycle, MV4-11” value in data set [5] is “statistically significant increase in the number of cells in the G0/G1 phase”. In addition, the “caspase 3/7 activity, A549” value is given as “hugely elevated caspase 3/7 activity” in [6] (1.5 × IC50, 24 h, several-fold lower at 72 h) and “+” in data set [6] (+/− summary vs control). The “Caspase 3/7 Activity, PC-3” value in [7] is recorded as “+”. The RM0 in data set [8] (RP-TLC, RP-18 F254S, acetone / Tris buffer pH 7.4, extrapolated to zero acetone) is recorded as 5.910. Besides, in data set [8] (from RM0 by calibration curve with eight reference compounds), the “log PTLC” value turned out to be 8.191. This compound also showed an IC50 at 72 h in data set [9] of 53.4 µM. Also, in data set [10] (IC50 BALB/3T3 / IC50 A549), the “Calculated Selectivity Index SI, A549” value was 1.5. Also, the “Calculated Selectivity Index SI, MCF-7” value in [11] (IC50 BALB/3T3 / IC50 MCF-7) is recorded as 1.0. Further, the “Calculated Selectivity Index SI, PC-3” value in [12] (IC50 BALB/3T3 / IC50 PC-3) is on record as 0.8.
